Test results as given in patent US20250154173A1 (Merck Sharp & Dohme LLC, priority 2023, published 2025).
pEC50: −log10 of the molar value.

biological target: T1, GST-RIPK1 (recombinant GST-RIPK1 kinase domain (residues 1-327)) (Homo sapiens, UniProt Q13546); test: RIPK1-ADP-Glo Enzymatic Assay; format: biochemical; settings: ten-point titration, top compound concentration of 100000 nM; 25 nM GST-RIPK1, 300 μM ATP, 3 μM dephosphorylated-MBP; 30 min pre-incubation, 150 min reaction
T1 construct: recombinant GST-RIPK1 kinase domain (residues 1-327) enzyme produced from baculovirus-transfected Sf21 cells; host or cells: baculovirus-transfected Sf21 insect cells
T1 sequence (Q13546 1-327): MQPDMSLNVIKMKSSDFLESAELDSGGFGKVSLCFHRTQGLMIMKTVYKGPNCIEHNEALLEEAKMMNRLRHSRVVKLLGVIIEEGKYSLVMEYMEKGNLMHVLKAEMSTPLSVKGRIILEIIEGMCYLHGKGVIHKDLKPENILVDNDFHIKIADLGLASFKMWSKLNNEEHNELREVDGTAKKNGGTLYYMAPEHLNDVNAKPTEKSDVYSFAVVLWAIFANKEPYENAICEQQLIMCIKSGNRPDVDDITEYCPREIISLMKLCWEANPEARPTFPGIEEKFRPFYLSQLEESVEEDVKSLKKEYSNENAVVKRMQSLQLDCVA
Protocol: RIPK1-ADP-Glo Enzymatic Assay
The enzymatic activity of RIPK1 is measured using an assay derived from ADP-Glo kit (TMPromega), which provides a luminescent-based ADP detection system. Specifically, the ADP generated by RIPK1 kinase is proportionally detected as luminescent signals in a homogenous fashion. In this context, the assessment of the inhibitory effect of small molecules (EC50) is measured by the effectiveness of the compounds to inhibit the ATP to ADP conversion by RIPK1.
In this assay, the potency (EC50) of each compound was determined from a ten-point (1:3 serial dilution; top compound concentration of 100000 nM) titration curve using the following outlined procedure. To each well of a white ProxiPlus 384 well-plate, 30 nL of compound (1% DMSO in final assay volume of 3 μL) was dispensed, followed by the addition of 2 μL of 1× assay buffer (25 mM Hepes 7.3, 20 mM MgCl2, 50 mM NaCl, 1 mM DTT, 0.005% Tween20, and 0.02% BSA) containing 37.5 nM of GST-RIPK1 (recombinant GST-RIPK1 kinase domain (residues 1-327) enzyme produced from baculovirus-transfected Sf21 cells: MW=62 kDa). Plates were placed in an ambient temperature humidified chamber for a 30 minutes pre-incubation with compound. Subsequently, each reaction was initiated by the addition of 1 μL 1× assay buffer containing 900 μM ATP and 3 μM dephosphorylated-MBP substrate. The final reaction in each well of 3 μL consists of 25 nM of GST-RIPK1, 300 μM ATP, and 3 μM dephosphorylated-MBP. Kinase reactions were allowed to proceed for 150 minutes prior to adding ADP-Glo reagents per Promega's outlined kit protocol. Dose-response curves were generated by plotting percent effect (% product conversion; Y-axis) vs. Log 10 compound concentrations (X-axis). EC50 values were calculated using a non-linear regression, four-parameters sigmoidal dose-response model.

SMILES	pEC50
N#Cc1ccc(O[C@H]2C[C@@]3(C2)O[C@@H]2CC[C@@H](c4ccccc4)N2C3=O)cc1F [Example 8.1, 2-fluoro-4-(((1r,3R,5′S,7a′R)-3′-oxo-5′-phenyltetrahydro-3′H-spiro[cyclobutane-1,2′-pyrrolo[2,1-b]oxazol]-3-yl)oxy)benzonitrile]	7.51
N#Cc1ccc(OC2CC3(C2)O[C@@H]2CC[C@@H](c4ccccc4)N2C3=O)cn1 (stereo partly drawn) [Example 8.2, 5-{[(5′S,7a′R)-3′-oxo-5′-phenyltetrahydro-3′H-spiro[cyclobutane-1,2′-pyrrolo[2,1-b][1,3]oxazol]-3-yl]oxy}pyridine-2-carbonitrile]	6.60
N#Cc1ccc(F)c(OC2CC3(C2)O[C@@H]2CC[C@@H](c4ccccc4)N2C3=O)c1 (stereo partly drawn) [Example 8.3, 4-fluoro-3-{[(5′S,7a′R)-3′-oxo-5′-phenyltetrahydro-3′H-spiro[cyclobutane-1,2′-pyrrolo[2,1-b][1,3]oxazol]-3-yl]oxy}benzonitrile]	7.70
O=C1N2[C@@H](CC[C@H]2c2ccccc2)OC12CC(Oc1ccnc(C(F)(F)F)c1)C2 (stereo partly drawn) [Example 8.4, (5′S,7a′R)-5′-phenyl-3-{[2-(trifluoromethyl)pyridin-4-yl]oxy}tetrahydro-3′H-spiro[cyclobutane-1,2′-pyrrolo[2,1-b][1,3]oxazol]-3′-one]	7.07
N#Cc1cccc(OC2CC3(C2)O[C@@H]2CC[C@@H](c4ccccc4)N2C3=O)c1 (stereo partly drawn) [Example 8.5, 3-{[(5′S,7a′R)-3′-oxo-5′-phenyltetrahydro-3′H-spiro[cyclobutane-1,2′-pyrrolo[2,1-b][1,3]oxazol]-3-yl]oxy}benzonitrile]	7.70
COc1cncc(OC2CC3(C2)O[C@@H]2CC[C@@H](c4ccccc4)N2C3=O)c1 (stereo partly drawn) [Example 8.6, (5′S,7a′R)-3-[(5-methoxypyridin-3-yl)oxy]-5′-phenyltetrahydro-3′H-spiro[cyclobutane-1,2′-pyrrolo[2,1-b][1,3]oxazol]-3′-one]	7.19
O=C1N2[C@@H](CC[C@H]2c2ccccc2)OC12CC(Oc1ccncc1F)C2 (stereo partly drawn) [Example 8.7, (5′S,7a′R)-3-[(3-fluoropyridin-4-yl)oxy]-5′-phenyltetrahydro-3′H-spiro[cyclobutane-1,2′-pyrrolo[2,1-b][1,3]oxazol]-3′-one]	7.13
O=C1N2[C@@H](CC[C@H]2c2ccccc2)OC12CC(Oc1cncc(C(F)(F)F)c1)C2 (stereo partly drawn) [Example 8.8, (5′S,7a′R)-5′-phenyl-3-{[5-(trifluoromethyl)pyridin-3-yl]oxy}tetrahydro-3′H-spiro[cyclobutane-1,2′-pyrrolo[2,1-b][1,3]oxazol]-3′-one]	6.81
N#Cc1ccc(OC2CC3(C2)O[C@@H]2CC[C@@H](c4ccccc4)N2C3=O)cc1 (some centres unmarked) [Example 8.9]	7.14
O=C1N2[C@@H](CC[C@H]2c2ccccc2)OC12CC(Oc1cccc(F)c1)C2 (stereo partly drawn) [Example 8.10, (5′S,7a′R)-3-(3-fluorophenoxy)-5′-phenyltetrahydro-3′H-spiro[cyclobutane-1,2′-pyrrolo[2,1-b][1,3]oxazol]-3′-one]	7.96
O=C1N2[C@@H](CC[C@H]2c2ccccc2)OC12CC(Oc1ccnc(Cl)c1)C2 (stereo partly drawn) [Example 8.11, (5′S,7a′R)-3-[(2-chloropyridin-4-yl)oxy]-5′-phenyltetrahydro-3′H-spiro[cyclobutane-1,2′-pyrrolo[2,1-b][1,3]oxazol]-3′-onee]	7.49
O=C1N2[C@@H](CC[C@H]2c2ccccc2)OC12CC(Oc1cccc3sncc13)C2 (stereo partly drawn) [Example 8.12, (5′S,7a′R)-3-[(1,2-benzothiazol-4-yl)oxy]-5′-phenyltetrahydro-3′H-spiro[cyclobutane-1,2′-pyrrolo[2,1-b][1,3]oxazol]-3′-one]	7.70
Cc1cc(OC2CC3(C2)O[C@@H]2CC[C@@H](c4ccccc4)N2C3=O)ccc1F (stereo partly drawn) [Example 8.13, (5′S,7a′R)-3-(4-fluoro-3-methylphenoxy)-5′-phenyltetrahydro-3′H-spiro[cyclobutane-1,2′-pyrrolo[2,1-b][1,3]oxazol]-3′-one]	7.21
O=C1N2[C@@H](CC[C@H]2c2ccccc2)OC12CC(Oc1ccc3sncc3c1)C2 (stereo partly drawn) [Example 8.14, (5′S,7a′R)-3-[(1,2-benzothiazol-5-yl)oxy]-5′-phenyltetrahydro-3′H-spiro[cyclobutane-1,2′-pyrrolo[2,1-b][1,3]oxazol]-3′-one]	7.08

Now from value to compound:

pEC50	SMILES
7.43	O=C1N2[C@@H](CC[C@H]2c2ccccc2)OC12CC(Oc1cccc(C(F)(F)F)c1)C2 (stereo partly drawn) [Example 8.15, (5′S,7a′R)-5′-phenyl-3-[3-(trifluoromethyl)phenoxy]tetrahydro-3′H-spiro[cyclobutane-1,2′-pyrrolo[2,1-b][1,3]oxazol]-3′-one]
7.24	O=C1N2[C@@H](CC[C@H]2c2ccccc2)OC12CC(Oc1cccc(-c3nnco3)c1)C2 (stereo partly drawn) [Example 8.16, (5′S,7a′R)-3-[3-(1,3,4-oxadiazol-2-yl)phenoxy]-5′-phenyltetrahydro-3′H-spiro[cyclobutane-1,2′-pyrrolo[2,1-b][1,3]oxazol]-3′-one]
7.46	O=C1N2[C@@H](CC[C@H]2c2ccccc2)OC12CC(Oc1cncc(Cl)c1)C2 (some centres unmarked) [Example 8.17]
7.68	COc1cc(OC2CC3(C2)O[C@@H]2CC[C@@H](c4ccccc4)N2C3=O)ccc1F (stereo partly drawn) [Example 8.18, (5′S,7a′R)-3-(4-fluoro-3-methoxyphenoxy)-5′-phenyltetrahydro-3′H-spiro[cyclobutane-1,2′-pyrrolo[2,1-b][1,3]oxazol]-3′-one]
6.60	O=C1N2[C@@H](CC[C@H]2c2ccccc2)OC12CC(Oc1cccc3cnoc13)C2 (some centres unmarked) [Example 8.19]
7.70	O=C1N2[C@@H](CC[C@H]2c2ccccc2)OC12CC(Oc1nccc3nccn13)C2 (stereo partly drawn) [Example 8.20, (5′S,7a′R)-3-[(imidazo[1,2-c]pyrimidin-5-yl)oxy]-5′-phenyltetrahydro-3′H-spiro[cyclobutane-1,2′-pyrrolo[2,1-b][1,3]oxazol]-3′-one]
7.41	O=C1N2[C@@H](CC[C@H]2c2ccccc2)OC12CC(Oc1ccnn3cccc13)C2 (stereo partly drawn) [Example 8.21, (5′S,7a′R)-5′-phenyl-3-[(pyrrolo[1,2-b]pyridazin-4-yl)oxy]tetrahydro-3′H-spiro[cyclobutane-1,2′-pyrrolo[2,1-b][1,3]oxazol]-3′-one]
7.54	O=C1N2[C@@H](CC[C@H]2c2ccc(F)cc2)O[C@]12C[C@H](Oc1ccnn3cccc13)C2 [Example 8.22, (1r,3R,5′S,7a′R)-5′-(4-fluorophenyl)-3-(pyrrolo[1,2-b]pyridazin-4-yloxy)tetrahydro-3′H-spiro[cyclobutane-1,2′-pyrrolo[2,1-b]oxazol]-3′-one]
7.54	O=C1N2[C@@H](CC[C@H]2c2ccccc2)OC12CC(Oc1nncc3cccn13)C2 (stereo partly drawn) [Example 8.23, (5′S,7a′R)-5′-phenyl-3-[(pyrrolo[1,2-d][1,2,4]triazin-4-yl)oxy]tetrahydro-3′H-spiro[cyclobutane-1,2′-pyrrolo[2,1-b][1,3]oxazol]-3′-one]
7.85	N#Cc1cc(O[C@H]2C[C@@]3(C2)O[C@@H]2CC[C@@H](c4ccc(F)cc4)N2C3=O)ncn1 [Example 9.1, 6-(((1r,3R,5′S,7a′R)-5′-(4-fluorophenyl)-3′-oxotetrahydro-3′H-spiro[cyclobutane-1,2′-pyrrolo[2,1-b]oxazol]-3-yl)oxy)pyrimidine-4-carbonitrile]
7.80	N#Cc1cc(O[C@H]2C[C@@]3(C2)O[C@@H]2CC[C@@H](c4cc(F)cc(F)c4)N2C3=O)ncn1 [Example 9.2, 6-(((5′S,7a′R)-5′-(3,5-difluorophenyl)-3′-oxotetrahydro-3′H-spiro[cyclobutane-1,2′-pyrrolo[2,1-b]oxazol]-3-yl)oxy)pyrimidine-4-carbonitrile]
8.00	O=C1N2[C@@H](CC[C@H]2c2cc(F)cc(F)c2)O[C@]12C[C@H](Oc1cc(Cl)ncn1)C2 [Example 9.3, (5′S,7a′R)-3-((6-chloropyrimidin-4-yl)oxy)-5′-(3,5-difluorophenyl)tetrahydro-3′H-spiro[cyclobutane-1,2′-pyrrolo[2,1-b]oxazol]-3′-one]
